How the values were obtained:
[1] = test system: TXB2 Released by Human Platelets; assay: Ionophore and arachidonic acid induced TXB2 released by human platelets (EIA); format: cell-based; details: human platelet-rich plasma; for IC50: challenge with calcium ionophore (10 μM) or arachidonic acid (50 μM); for inhibition at 1 µM: test concentration of 1 μM, calcium ionophore or arachidonic acid challenge, read-out: TXB2 percent inhibition
Protocol: Ionophore and Arachidonic Acid Induced TXB2 Released by Human Platelets
The plate was incubated for 15 minutes at 37° C. Following incubation, platelets were challenged with calcium ionophore (final 10 μM) or arachidonic acid (AA) (final 50 μM) and the plate was further incubated at 37° C. for 15 min. The plate was transferred to an ice bed for 5 min in order to stop the reaction. Supernatants were assayed for TXB2 production by EIA (Assay Design Inc) after diluting with assay buffer (Assay Design Inc).

Neutrophil LTB4 [2] = assay: Neutrophil LTB4 assay (calcium ionophore challenge, EIA); format: cell-based; details: Neutrophil; test concentration of 5 μM; human neutrophils, calcium ionophore 1 μM; read-out: LTB4 percent inhibition
Protocol: Neutrophils purified from human blood were resuspended in HBSS buffer containing calcium and magnesium to a cell density of 1×10^6/mL. Purified neutrophils were then incubated with test compounds at a test concentration of 5 μM for 15 min at 37° C. Following incubation, the cells were challenged with calcium ionophore (1 μM final) for 15 minutes at 37° C. Negative control wells were incubated with equal volume of vehicle. The reaction was stopped by transferring the plate to ice for 5 minutes. The plate was centrifuged at 1500 RPM for 5 min at 4° C. LTB4 was calculated in cell free supernatants by EIA (Assay Design Inc).

[3] = test system: PMA Induced Acute Ear Edema; assay: PMA induced acute ear edema (mouse); format: in vivo; details: ear punch weight 6 h after PMA; for % Inh (percent inhibition of edema): test compound applied topically at about 1% to about 10%, 10 min before PMA
Protocol: PMA Induced Acute Ear Edema
PMA was prepared […] in an acetone:water mixture (99:1). 10 μL of 200 ng/10 μL was applied to the left ears of the mice. Control mice received 10 μL of vehicle. Test compounds were dissolved in the vehicle and applied at a test concentration of from about 1% to about 10% (depending on solubility) at 10 min before PMA application. β-methasone (1%) was used as a control. Six hours after the PMA application, mice were sacrificed and 6 mm ear punch biopsies were removed and weighed to assess edema.

Neutrophil LTB4 [4] = assay: Neutrophil LTB4 assay (calcium ionophore challenge, EIA); format: cell-based; details: human neutrophils, calcium ionophore 1 μM

Row | Structure (SMILES) | IC50 [1] | melting point | inhibition at 5 µM (Neutrophil LTB4 [2]) | % Inh (percent inhibition of edema) [3] | IC50 (Neutrophil LTB4 [4]) | β-methasone control, percent inhibition of edema ([3]; β-methasone (1%) used as control) | inhibition at 1 µM [1]
1 | O=c1cc(Cl)sn1Cc1sc2ccccc2c1Cl [Cpd 6, 5-chloro-2-(3-chloro-benzo[b]thiophen-2-ylmethyl)-isothiazol-3-one] | 710 nM | 118 to 120 °C | 70% |  |  |  | 
2 | O=c1cc(Cl)sn1Cc1cc2ccccc2s1 [Cpd 7, 2-benzo[b]thiophen-2-ylmethyl-5-chloro-isothiazol-3-one] | 460 nM | 101 to 103 °C | 95% |  |  |  | 
3 | O=c1ccsn1Cc1ccc(-n2cc(Cl)cn2)cc1 [Cpd 57, 2-[4-(4-chloro-pyrazol-1-yl)-benzyl]-isothiazol-3-one] | 3000 nM |  | 100% | 100% |  |  | 
4 | O=c1ccsn1Cc1cc2ccccc2s1 [Cpd 9, 2-benzo[b]thiophen-2-ylmethyl-isothiazol-3-one] | 1800 nM | 144 to 146 °C | 84% | 72% |  |  | 
5 | O=c1ccsn1Cc1cccc(-c2ccco2)c1 [Cpd 49, 2-(3-furan-2-yl-benzyl)-isothiazol-3-one] | 1200 nM | 78 to 80 °C | 100% |  |  |  | 
6 | Cc1nc(-c2ccc(Cn3sccc3=O)cc2)cs1 [Cpd 26, 2-[4-(2-methyl-thiazol-4-yl)-benzyl]-isothiazol-3-one] | 400 nM | 150.5 to 152 °C |  |  | 1700 nM |  | 
7 | O=c1cc(Cl)sn1Cc1ccc(-c2csnn2)cc1 [Cpd 21, 5-chloro-2-(4-[1,2,3]thiadiazol-4-yl-benzyl)isothiazol-3-one] | 1000 nM | 152 to 154 °C | 87% |  |  |  | 
8 | O=C(c1ccccc1)c1ccc(Cn2sccc2=O)cc1 [Cpd 51, 2-(4-benzoylbenzyl)-isothiazol-3-one] | 1200 nM |  | 90% | 84% |  |  | 
9 | C[C@H]1C[C@H]2[C@@H]3CCC4=CC(=O)C=C[C@]4(C)[C@@]3(F)[C@@H](O)C[C@]2(C)[C@@]1(O)C(=O)CO [β-methasone, reference compound] |  |  |  |  |  | 100% | 
10 | O=c1ccsn1Cc1cccc2ccccc12 [Cpd 2, 2-naphthalen-1-ylmethyl-isothiazol-3-one] | 3000 nM | 121 to 125 °C | 81% |  |  |  | 
11 | Cc1nc(-c2cccc(Cn3sccc3=O)c2)cs1 [Cpd 48, 2-[3-(2-methyl-thiazol-4-yl)benzyl]-isothiazol-3-one] | 1500 nM |  |  |  | 1500 nM |  | 
12 | Cc1nc(-c2ccc(Cn3sc(Cl)cc3=O)cc2)cs1 [Cpd 31, 5-chloro-2-[4-(2-methyl-thiazol-4-yl)-benzyl]-isothiazol-3-one] |  |  | 88% |  |  |  | 54%
13 | O=c1cc(Cl)sn1Cc1ccc2c(c1)CCO2 [Cpd 16, 5-chloro-2-(2,3-dihydro-benzofuran-5-ylmethyl)-isothiazol-3-one] | 250 nM | 100 to 102 °C | 97% |  |  |  | 
14 | O=c1ccsn1Cc1csc2ccccc12 [Cpd 12, 2-benzo[b]thiophen-3-ylmethyl-isothiazol-3-one] | 750 nM |  | 89% |  |  |  | 
15 | O=c1cc(Cl)sn1Cc1nc(-c2ccccc2)sc1Cl [Cpd 52, 5-chloro-2-(5-chloro-2-phenyl-thiazol-4-ylmethyl)-isothiazol-3-one] | 400 nM |  | 81% |  |  |  | 
16 | O=c1cc(Cl)sn1Cc1nc(-c2cccs2)sc1Cl [Cpd 61, 5-chloro-2-(5-chloro-2-thiophen-2-yl-thiazol-4-ylmethyl)-isothiazol-3-one] |  |  | 100% |  |  |  | 49%
17 | CCCCCS(=O)(=O)c1ccc(Cn2sc(Cl)cc2=O)cc1 [Cpd 41, 5-chloro-2-[4-(pentane-1-sulfonyl)-benzyl]-isothiazol-3-one] | 500 nM |  | 100% |  |  |  | 
18 | O=c1ccsn1Cc1csc(-c2ccccc2)n1 [Cpd 54, 2-(2-phenyl-thiazol-4-ylmethyl)-isothiazol-3-one] | 1500 nM |  | 96% |  |  |  | 
19 | O=C(c1ccccc1)c1ccc(Cn2sc(Cl)cc2=O)cc1 [Cpd 35, 5-chloro-2-(4-benzoylbenzyl)-isothiazol-3-one] | 60 nM |  | 100% |  |  |  | 
20 | O=c1cc(Cl)sn1Cc1ccc(-n2cc(Cl)cn2)cc1 [Cpd 55, 5-chloro-2-[4-(4-chloro-pyrazol-1-yl)-benzyl]-isothiazol-3-one] | 3200 nM |  | 72% |  |  |  | 
21 | O=c1cc(Cl)sn1Cc1cccc2ccccc12 [Cpd 1, 5-chloro-2-naphthalen-1-ylmethyl-isothiazol-3-one] | 3000 nM |  | 99% |  |  |  | 

From patent publication US20060293374A1, “Substituted isothiazolones” (priority 2005, published 2006)
